ChEMBL document CHEMBL1201862, “PubChem BioAssay data set” (2004)
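Five compound concentrations were applied to cells in 96-well plates for 48 hours; endpoints were derived by simple linear interpolation of the resulting dose-response curve. GI50 marks 50% less growth.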 Active and inactive are the calls of the source. No stated cut-off is given here; in the data, active = GI50 up to about 1.1 µM and inactive = higher.

Legend:
Assay in all cases: NCI-60 cell line screen, 48 h
COLO 205 = tested on: COLO 205
SK-MEL-5 = tested on: SK-MEL-5
A549 = tested on: A549
HCT-116 = tested on: HCT-116
TK-10 = tested on: TK-10
OVCAR-5 = tested on: OVCAR-5
UACC-257 = tested on: UACC-257
LOX IMVI = tested on: LOX IMVI
HCT-15 = tested on: HCT-15
U-251 = tested on: U-251
CCRF-CEM = tested on: CCRF-CEM
SK-OV-3 = tested on: SK-OV-3
SK-MEL-2 = tested on: SK-MEL-2
K562 = tested on: K562
UO-31 = tested on: UO-31
UACC-62 = tested on: UACC-62
NCI-H460 = tested on: NCI-H460
RXF 393 = tested on: RXF 393
NCI-H23 = tested on: NCI-H23

| SMILES | GI50 (COLO 205) | GI50 (SK-MEL-5) | GI50 (A549) | GI50 (HCT-116) | GI50 (TK-10) | GI50 (OVCAR-5) | GI50 (UACC-257) | GI50 (LOX IMVI) | GI50 (HCT-15) | GI50 (U-251) | GI50 (CCRF-CEM) | GI50 (SK-OV-3) | GI50 (SK-MEL-2) | GI50 (K562) | GI50 (UO-31) | GI50 (UACC-62) | GI50 (NCI-H460) | GI50 (RXF 393) | GI50 (NCI-H23) |
| --- | --- | --- | --- | --- | --- | --- | --- | --- | --- | --- | --- | --- | --- | --- | --- | --- | --- | --- | --- |
| CCOc1cc2cnc3c4cc(OC)c(OC)cc4ccc3c2cc1OC | 4.92 µM (inactive) | > 100 µM (inactive) | > 100 µM (inactive) | > 100 µM (inactive) | > 100 µM (inactive) | > 100 µM (inactive) | > 100 µM (inactive) | 65 µM (inactive) | > 100 µM | 6.4 µM (inactive) | 23.8 µM (inactive) | > 100 µM (inactive) | 69 µM (inactive) | 20.7 µM (inactive) | > 100 µM (inactive) | > 100 µM (inactive) | > 100 µM (inactive) | > 100 µM (inactive) | > 100 µM (inactive) |
| CC(C)(C)C(=O)OC12/C(=N/O)CCCCCC1c1ccccc12 (centres undefined) | 17 µM (inactive) | 17.8 µM (inactive) | 17.8 µM (inactive) | 14.4 µM (inactive) | 15.9 µM (inactive) | 15.3 µM (inactive) | 15 µM (inactive) | 14.3 µM (inactive) | 16.2 µM | 17.7 µM (inactive) | 23.4 µM (inactive) | 18.7 µM (inactive) | 19.2 µM (inactive) | 19.5 µM (inactive) | 17.1 µM (inactive) | 17.4 µM (inactive) | 17.3 µM (inactive) | 19.5 µM (inactive) | 16.6 µM (inactive) |
| Cc1nc(N)sc1C(=O)/C=C/c1ccc(/C=C/C(=O)c2sc(NC(=O)CCCCCCCCC(=O)Nc3nc(C)c(C(=O)/C=C/c4ccc(/C=C/C(=O)c5sc(N)nc5C)cc4)s3)nc2C)cc1 | > 100 µM (inactive) | – | > 100 µM (inactive) | 92 µM (inactive) | > 100 µM (inactive) | > 100 µM (inactive) | > 100 µM (inactive) | > 100 µM (inactive) | > 100 µM | > 100 µM (inactive) | 80.9 µM (inactive) | > 100 µM (inactive) | > 100 µM (inactive) | > 100 µM (inactive) | > 100 µM (inactive) | 27.7 µM (inactive) | > 100 µM (inactive) | > 100 µM (inactive) | > 100 µM (inactive) |
| CCOC(=O)C1=C(NC(C)(C)C)OC/C1=N\NC(=O)Cc1ccccc1 | > 100 µM (inactive) | > 100 µM (inactive) | > 100 µM (inactive) | > 100 µM (inactive) | > 100 µM (inactive) | > 100 µM (inactive) | > 100 µM (inactive) | > 100 µM (inactive) | > 100 µM | > 100 µM (inactive) | > 100 µM (inactive) | > 100 µM (inactive) | > 100 µM (inactive) | > 100 µM (inactive) | > 100 µM (inactive) | > 100 µM (inactive) | > 100 µM (inactive) | > 100 µM (inactive) | > 100 µM (inactive) |
| CCOC(=O)C1=C(O)C(=O)c2ccsc2C1=O | > 100 µM (inactive) | > 100 µM (inactive) | > 100 µM (inactive) | > 100 µM (inactive) | > 100 µM (inactive) | > 100 µM (inactive) | > 100 µM (inactive) | > 100 µM (inactive) | > 100 µM | > 100 µM (inactive) | > 100 µM (inactive) | > 100 µM (inactive) | > 100 µM (inactive) | > 100 µM (inactive) | > 100 µM (inactive) | > 100 µM (inactive) | > 100 µM (inactive) | > 100 µM (inactive) | > 100 µM (inactive) |
| Cc1ccc(C2=Nc3ccccc3SC(c3cccc4c3OCO4)C2)cc1 (centres undefined) | 18.3 µM (inactive) | 16.2 µM (inactive) | 23.9 µM (inactive) | – | 21.2 µM (inactive) | 21.8 µM (inactive) | 18 µM (inactive) | 16.6 µM (inactive) | 21.1 µM | – | 15.7 µM (inactive) | 35.8 µM (inactive) | 20.3 µM (inactive) | 14.8 µM (inactive) | 14.1 µM (inactive) | 20.3 µM (inactive) | 31.3 µM (inactive) | > 10 µM (inactive) | 16.7 µM (inactive) |
| Cc1cn(C2C=CC(COP(=O)(OCC3=CC(=O)c4ccccc4C3=O)N(C)CCCCCl)O2)c(=O)[nH]c1=O (centres undefined) | 3.23 µM (inactive) | 0.813 µM (active) | 1.6 µM (inactive) | 14 µM (inactive) | 20.7 µM (inactive) | 12.1 µM (inactive) | 3.25 µM (inactive) | 2.38 µM (inactive) | 8.51 µM | 5.38 µM (inactive) | 3.12 µM (inactive) | 11 µM (inactive) | 13.2 µM (inactive) | 5.81 µM (inactive) | 12.8 µM (inactive) | 3.75 µM (inactive) | 2.49 µM (inactive) | 2.5 µM (inactive) | 2.39 µM (inactive) |
| CCOC(=O)CC(NCc1ccc(/N=C/c2nc3ccc(C(F)(F)F)cc3nc2-c2ccccc2)cc1)C(=O)OCC (centres undefined) | > 100 µM (inactive) | > 78.7 µM (inactive) | > 100 µM (inactive) | > 55.5 µM (inactive) | 23.3 µM (inactive) | > 100 µM (inactive) | > 100 µM (inactive) | > 100 µM (inactive) | > 100 µM | 21.8 µM (inactive) | > 100 µM (inactive) | 29 µM (inactive) | > 47.3 µM (inactive) | > 100 µM (inactive) | > 100 µM (inactive) | 13.7 µM (inactive) | > 100 µM (inactive) | 15.2 µM (inactive) | > 57.3 µM (inactive) |
| O=C(O)C1(c2ccccc2)CCCNCC1 (centres undefined) | > 100 µM (inactive) | > 100 µM (inactive) | > 100 µM (inactive) | > 100 µM (inactive) | > 100 µM (inactive) | > 100 µM (inactive) | > 100 µM (inactive) | > 100 µM (inactive) | > 100 µM | > 100 µM (inactive) | > 100 µM (inactive) | > 100 µM (inactive) | > 100 µM (inactive) | > 100 µM (inactive) | > 100 µM (inactive) | > 100 µM (inactive) | > 100 µM (inactive) | > 100 µM (inactive) | > 100 µM (inactive) |
| N#C/C(C(=S)NCc1ccccc1)=C(/N)N1CCCC1 | > 100 µM (inactive) | > 100 µM (inactive) | > 100 µM (inactive) | > 100 µM (inactive) | > 100 µM (inactive) | > 100 µM (inactive) | > 100 µM (inactive) | > 100 µM (inactive) | > 100 µM | > 100 µM (inactive) | > 100 µM (inactive) | > 100 µM (inactive) | > 100 µM (inactive) | > 100 µM (inactive) | > 100 µM (inactive) | > 100 µM (inactive) | > 100 µM (inactive) | 74.3 µM (inactive) | > 100 µM (inactive) |
| COP(=O)(OC)C(O)/C=C(\Cl)c1ccc(Cl)cc1 (centres undefined) | > 100 µM (inactive) | 23.7 µM (inactive) | > 100 µM (inactive) | 18.4 µM (inactive) | > 100 µM (inactive) | > 100 µM (inactive) | 28.4 µM (inactive) | 19.6 µM (inactive) | 25.9 µM | 53.2 µM (inactive) | 21.1 µM (inactive) | > 100 µM (inactive) | > 100 µM (inactive) | 43.5 µM (inactive) | 71 µM (inactive) | 56 µM (inactive) | > 100 µM (inactive) | 78.2 µM (inactive) | 21.2 µM (inactive) |
| Cn1cc(S(=O)(=O)NC(=O)Nc2ccc(Cl)cc2)c(=O)c2ccc(F)cc21 | > 100 µM (inactive) | > 100 µM (inactive) | > 100 µM (inactive) | > 100 µM (inactive) | > 100 µM (inactive) | > 100 µM (inactive) | > 100 µM (inactive) | 22.6 µM (inactive) | > 100 µM | > 100 µM (inactive) | > 100 µM (inactive) | > 100 µM (inactive) | > 100 µM (inactive) | > 100 µM (inactive) | > 100 µM (inactive) | 3.01 µM (inactive) | > 100 µM (inactive) | > 100 µM (inactive) | > 100 µM (inactive) |
| OCn1nc2c(C3OCCO3)cc3ccccc3n2c1=S | > 100 µM (inactive) | > 100 µM (inactive) | > 100 µM (inactive) | > 100 µM (inactive) | > 100 µM (inactive) | > 100 µM (inactive) | > 100 µM (inactive) | > 100 µM (inactive) | > 100 µM | > 100 µM (inactive) | > 100 µM (inactive) | > 100 µM (inactive) | > 100 µM (inactive) | > 100 µM (inactive) | > 100 µM (inactive) | > 100 µM (inactive) | > 100 µM (inactive) | > 100 µM (inactive) | > 100 µM (inactive) |
| c1coc(-c2nccc3c2[nH]c2ccccc23)c1 | 17.5 µM (inactive) | > 100 µM (inactive) | > 100 µM (inactive) | > 100 µM (inactive) | > 100 µM (inactive) | > 100 µM (inactive) | > 100 µM (inactive) | > 100 µM (inactive) | > 100 µM | > 100 µM (inactive) | > 100 µM (inactive) | > 100 µM (inactive) | > 100 µM (inactive) | > 100 µM (inactive) | – | > 100 µM (inactive) | > 100 µM (inactive) | > 100 µM (inactive) | > 100 µM (inactive) |
| CC(C)=CCC/C(C)=C/CC/C(C)=C/Cc1c(O)c2ccccc2oc1=O | > 100 µM (inactive) | – | 65.6 µM (inactive) | 89.1 µM (inactive) | > 100 µM (inactive) | – | 99.8 µM (inactive) | > 100 µM (inactive) | 69 µM | 57.9 µM (inactive) | > 100 µM (inactive) | > 100 µM (inactive) | > 100 µM (inactive) | 80.5 µM (inactive) | 48.8 µM (inactive) | 63.7 µM (inactive) | > 100 µM (inactive) | 99.1 µM (inactive) | 55.8 µM (inactive) |
